Measured values: patent US20030157154A1, “Compositions containing hydroxy aromatic aldehydes and their use in treatments” (priority 2002, published 2003)

Assays:
[1] = system: PGE-2; test: TPA-induced PGE-2 in human skin keratinocytes (ELISA of culture medium); assay type: cell-based; conditions: TPA 32 nM
Procedure: (§1) For this experiment, human skin fibroblasts were seeded into 12 well culture dishes at a density of 80,000 cells/well in tissue culture medium and left overnight to attach to the dish. The next day, medium was removed and replaced with fresh medium containing either 1% ethanol as a diluent control, IL-1 at a concentration of 500 picograms/ml, or IL-1 plus one of the compounds under investigation at a concentration of 1, 10, 50 or 100 μM. Cells were incubated for an additional 24 hours and at this time, the medium was removed and assayed by ELISA for the presence of PGE-2 in the culture medium.
Similar in vitro studies as those described in Example 1 were run using human skin keratinocytes except that the aromatic aldehyde was not added t. The experimental set up was the same as described for Example 1, but replacing IL-1 with tetradecanoyl phorbol acetate (TPA) at a concentration of 32 nM as the agonist. Samples of 3,5-Di-tert-butyl, 4- hydroxybenzaldehyde (DTHB) in concentrations of either 10, 50, or 100 μM were tested. […] However, treatment with DTHB blocked PGE-2 production by at least 50.

[2] = system: PGE-2; test: IL-1 induced PGE-2 in human skin fibroblasts (ELISA of culture medium); assay type: cell-based; conditions: Skin fibroblast, IL-1 500 picograms/ml, 24 hours, read-out: percent inhibition of IL-1 induced PGE-2; for inhibition at 1 µM: compound 1 μM; for inhibition at 10 µM: compound 10 μM; for inhibition at 50 µM: compound 50 μM
Procedure: as §1

Row | Compound | inhibition at 10 µM ([1]; Keratinocyte, compound 10 μM, read-out: percent inhibition of TPA-induced PGE-2) [%] | blocked PGE-2 production ([1]; DTHB 10, 50, or 100 μM) | inhibition at 1 µM [2] [%] | inhibition at 10 µM [2] [%] | inhibition at 50 µM [2] [%]
1 | CC(C)(C)c1cc(C=O)cc(C(C)(C)C)c1O [DTHB, 3,5 di-tert-butyl-4-hydroxybenzaldehyde] | 87.9 | at least 50 | 3.3 | 44.4 | 100
2 | CCOc1ccc(C=O)cc1 [4-EB, 4-ethoxybenzaldehyde, reference compound] | – | – | 10 | 6 | 100
